Publication PMC10451648 (Antibiotics, 2023)
≈ marks a conversion by molar mass, not a printed value. Entries after “also recorded” stand apart in the source; their conditions may differ. Where two headings read alike, the source gives them in different places. Square brackets hold non-standard residues; d marks the D form. Peptide text beside a SMILES is read from it. Api = NC1(C(=O)O)CCNCC1; Aib = CC(C)(N)C(=O)O

How the values were obtained:
human red blood cells = assay: Hemolysis activity against red blood cells; settings: human RBCs in 172 mM Tris-HCl pH 7.6, 30 min at 37 °C, absorbance 535 nm; DMSO = 0%, M-Lycotoxin = 100%; final peptide conc. 100 to 0.39
Experimental: AMPs primarily target microbial membranes, leading to their antimicrobial activity through membrane lysis. However, it is important to consider their potential effects on human cell membranes, as this could raise concerns regarding cytotoxicity. […] Hemolytic activity was assessed by measuring the absorption at 535 nm, which indicates the leakage of red blood cell cytoplasmic contents and hemoglobin.
Human red blood cells (RBCs) were supplied by the Japanese Red Cross Society (Tokyo, Japan). The hemolytic assay of the synthesized peptides was performed as previously reported. Briefly, 5.0 mL of the total erythrocytes were washed three times with 172 mM Tris-HCl buffer (pH = 7.6, wash buffer:WB) and 1.0 mL of precipitated erythrocytes was diluted with 9.0 mL of WB. Then, 0.5 mL of the suspension was diluted in WB, and 50 µL of RBC solution was incubated with 50 µL of each peptide for 30 min at 37 °C (final peptide conc. from 100 to 0.39 μM). The suspensions were then centrifuged at 400 rpm for 5 min. The absorbance of the supernatant was measured at a wavelength of 535 nm. M-Lycotoxin [22], which is a typical hemolytic toxic peptide derived from Wolf spider, was used as a positive control, and the absorbance of the sample from DMSO and M-Lycotoxin treatment was defined as 0 and 100%, respectively.

[1] = PBS without FBS
S. aureus NBRC 13276 = format: cell-based, Staphylococcus aureus
Experimental: (§1) The antimicrobial activities of peptides 1–8 against Gram-positive Staphylococcus aureus, Gram-negative Escherichia coli DH5α, Pseudomonas aeruginosa, and multidrug-resistant P. aeruginosa (MDRP) were evaluated. The minimum inhibitory concentration (MIC) against these bacteria was measured as an indicator of antimicrobial activity, and the results are discussed in Table 2.
(§2) One type of Gram-positive bacteria, S. aureus NBRC 13276, and three Gram-negative bacteria, E. coli DH5α, P. aeruginosa NBRC 13275, and MDRP, were selected for the evaluation of the antimicrobial activity of the synthesized peptides. The selected bacterial strains were obtained from the Biological Resource Center, NITE (NBRC; Tokyo, Japan), and Escherichia coli DH5α cells were purchased from BioDynamics Laboratory, Inc. (Tokyo, Japan). The antimicrobial activities of the tested peptides 1–8 against each stain were examined by the standard broth microdilution method, as previously reported. Briefly, the bacteria were seeded and grown overnight at 37 °C on Agar media for other organisms i (Agar medium) and then collected with the media for other organisms ii (liquid medium), according to the 17th revision of Japanese Pharmacopoeia. Next, 10 μL of the peptide solution per well was added to each well of a sterile 96-well plate, and 90 μL per well of inoculation was mixed with 10^4 CFUs (colony forming units) per mL and added to each well, and the plate was incubated for 18 h at 35 °C.

Escherichia coli DH5α = format: cell-based; settings: broth microdilution, 10^4 CFUs per mL, 18 h at 35 °C; MIC = lowest concentration that completely inhibited bacterial growth; final conc. 0.39 to 100
Experimental: as §1, §2

in vitro = settings: 50% fetal bovine serum in PBS
P. aeruginosa NBRC 13275 = format: cell-based, Pseudomonas aeruginosa; settings: NBRC 13275, 18 h
Experimental: as §1, §2

[2] = test system: multidrug-resistant P. aeruginosa (MDRP); format: cell-based, Pseudomonas aeruginosa; settings: multidrug-resistant (MDRP, 18 h)
Experimental: as §1, §2

Proteinase K = assay: 0.002% (v/v) Proteinase K; settings: 37 °C, up to 24 h
[3] = broth microdilution, 10^4 CFUs per mL, 18 h at 35 °C, MIC = lowest concentration that completely inhibited bacterial growth, final conc. 0.39 to 100

| Compound | Hemolysis (concentration at which hemolytic activity is exhibited) (human red blood cells) | Stability in PBS [1] | MIC, S. aureus, Gram(+) (S. aureus NBRC 13276; [3]) | MIC, E. Coli DH5α, Gram(−) (Escherichia coli DH5α) | residual amount after 24 h proteinase K treatment | remaining at 24 h (in vitro) | MIC, P. aeruginosa, Gram(−) (P. aeruginosa NBRC 13275) | MIC, S. aureus, Gram(+) (S. aureus NBRC 13276; NBRC 13276, 18 h) | MIC, MDRP [2] | cleaved bond (Proteinase K) |
| --- | --- | --- | --- | --- | --- | --- | --- | --- | --- | --- |
| CC[C@H](C)[C@H](NC(=O)CN)C(=O)NC1(C(=O)N[C@@H](CCCCN)C(=O)N[C@@H](Cc2ccccc2)C(=O)N[C@@H](CC(C)C)C(=O)N[C@@H](CCCCN)C(=O)N[C@@H](CO)C(=O)NC(C)(C)C(=O)N[C@@H](CCCCN)C(=O)N[C@@H](CCCCN)C(=O)N[C@@H](Cc2ccccc2)C(=O)N[C@H](C(=O)N[C@@H](CCCCN)C(=O)NC(C)(C)C(=O)N[C@@H](Cc2ccccc2)C(=O)N[C@@H](CCCCN)C(N)=O)C(C)C)CCNCC1 [Peptide 2] (H-GI[Api]KFLKS[Aib]KKFVK[Aib]FK-NH2) | 12.5 µM | stable in PBS | 12.5 µM (≈ 24.9 µg/mL) | 3.125 µM (≈ 6.23 µg/mL) | > 60% | 70% | 3.125 µM (≈ 6.23 µg/mL) | – | – | – |
| CC[C@H](C)[C@H](NC(=O)CN)C(=O)N[C@@H](CCCCN)C(=O)NC1(C(=O)N[C@@H](Cc2ccccc2)C(=O)N[C@@H](CC(C)C)C(=O)N[C@@H](CCCCN)C(=O)N[C@@H](CO)C(=O)NC(C)(C)C(=O)N[C@@H](CCCCN)C(=O)N[C@@H](CCCCN)C(=O)N[C@@H](Cc2ccccc2)C(=O)N[C@H](C(=O)N[C@@H](CCCCN)C(=O)NC(C)(C)C(=O)N[C@@H](Cc2ccccc2)C(=O)N[C@@H](CCCCN)C(N)=O)C(C)C)CCNCC1 [Peptide 3] (H-GIK[Api]FLKS[Aib]KKFVK[Aib]FK-NH2) | 25 µM | – | – | 3.125 µM (≈ 6.23 µg/mL) | – | – | 3.125 µM (≈ 6.23 µg/mL) | 25 µM (≈ 49.8 µg/mL) | – | – |
| CC[C@H](C)[C@H](NC(=O)CN)C(=O)N[C@@H](CCCCN)C(=O)N[C@@H](CCCCN)C(=O)N[C@@H](Cc1ccccc1)C(=O)N[C@@H](CC(C)C)C(=O)NC1(C(=O)N[C@@H](CO)C(=O)NC(C)(C)C(=O)N[C@@H](CCCCN)C(=O)N[C@@H](CCCCN)C(=O)N[C@@H](Cc2ccccc2)C(=O)N[C@H](C(=O)N[C@@H](CCCCN)C(=O)NC(C)(C)C(=O)N[C@@H](Cc2ccccc2)C(=O)N[C@@H](CCCCN)C(N)=O)C(C)C)CCNCC1 [Peptide 4] (H-GIKKFL[Api]S[Aib]KKFVK[Aib]FK-NH2) | 12.5 µM | – | 12.5 µM (≈ 24.9 µg/mL) | 1.56 µM (≈ 3.11 µg/mL) | – | – | 3.125 µM (≈ 6.23 µg/mL) | – | 6.25 µM (≈ 12.5 µg/mL) | – |
| CC[C@H](C)[C@H](NC(=O)CN)C(=O)N[C@@H](CCCCN)C(=O)N[C@@H](CCCCN)C(=O)N[C@@H](Cc1ccccc1)C(=O)N[C@@H](CC(C)C)C(=O)N[C@@H](CCCCN)C(=O)N[C@@H](CO)C(=O)NC(C)(C)C(=O)NC1(C(=O)N[C@@H](CCCCN)C(=O)N[C@@H](Cc2ccccc2)C(=O)N[C@H](C(=O)N[C@@H](CCCCN)C(=O)NC(C)(C)C(=O)N[C@@H](Cc2ccccc2)C(=O)N[C@@H](CCCCN)C(N)=O)C(C)C)CCNCC1 [Peptide 5] (H-GIKKFLKS[Aib][Api]KFVK[Aib]FK-NH2) | 50 µM | – | – | 1.56 µM (≈ 3.11 µg/mL) | – | – | 3.125 µM (≈ 6.23 µg/mL) | 25 µM (≈ 49.8 µg/mL) | 6.25 µM (≈ 12.5 µg/mL) | – |
| CC[C@H](C)[C@H](NC(=O)CN)C(=O)N[C@@H](CCCCN)C(=O)N[C@@H](CCCCN)C(=O)N[C@@H](Cc1ccccc1)C(=O)N[C@@H](CC(C)C)C(=O)N[C@@H](CCCCN)C(=O)N[C@@H](CO)C(=O)NC(C)(C)C(=O)N[C@@H](CCCCN)C(=O)NC1(C(=O)N[C@@H](Cc2ccccc2)C(=O)N[C@H](C(=O)N[C@@H](CCCCN)C(=O)NC(C)(C)C(=O)N[C@@H](Cc2ccccc2)C(=O)N[C@@H](CCCCN)C(N)=O)C(C)C)CCNCC1 [Peptide 6] (H-GIKKFLKS[Aib]K[Api]FVK[Aib]FK-NH2) | 50 µM | – | – | 1.56 µM (≈ 3.11 µg/mL) | – | – | 3.125 µM (≈ 6.23 µg/mL) | 12.5 µM (≈ 24.9 µg/mL) | 6.25 µM (≈ 12.5 µg/mL) | – |
| CC[C@H](C)[C@H](NC(=O)CN)C(=O)N[C@@H](CCCCN)C(=O)N[C@@H](CCCCN)C(=O)N[C@@H](Cc1ccccc1)C(=O)N[C@@H](CC(C)C)C(=O)N[C@@H](CCCCN)C(=O)N[C@@H](CO)C(=O)NC(C)(C)C(=O)N[C@@H](CCCCN)C(=O)N[C@@H](CCCCN)C(=O)N[C@@H](Cc1ccccc1)C(=O)N[C@H](C(=O)NC1(C(=O)NC(C)(C)C(=O)N[C@@H](Cc2ccccc2)C(=O)N[C@@H](CCCCN)C(N)=O)CCNCC1)C(C)C [Peptide 7] (H-GIKKFLKS[Aib]KKFV[Api][Aib]FK-NH2) | 12.5 µM | – | 12.5 µM (≈ 24.9 µg/mL) | 1.56 µM (≈ 3.11 µg/mL) | – | – | 3.125 µM (≈ 6.23 µg/mL) | – | 6.25 µM (≈ 12.5 µg/mL) | – |
| CC[C@H](C)[C@H](NC(=O)CN)C(=O)N[C@@H](CCCCN)C(=O)N[C@@H](CCCCN)C(=O)N[C@@H](Cc1ccccc1)C(=O)N[C@@H](CC(C)C)C(=O)N[C@@H](CCCCN)C(=O)N[C@@H](CO)C(=O)NC(C)(C)C(=O)N[C@@H](CCCCN)C(=O)N[C@@H](CCCCN)C(=O)N[C@@H](Cc1ccccc1)C(=O)N[C@H](C(=O)N[C@@H](CCCCN)C(=O)NC(C)(C)C(=O)N[C@@H](Cc1ccccc1)C(=O)NC1(C(N)=O)CCNCC1)C(C)C [Peptide 8] (H-GIKKFLKS[Aib]KKFVK[Aib]F[Api]-NH2) | 100 µM | – | – | 3.125 µM (≈ 6.23 µg/mL) | – | – | 3.125 µM (≈ 6.23 µg/mL) | 12.5 µM (≈ 24.9 µg/mL) | 12.5 µM (≈ 24.9 µg/mL) | – |
| H-GIKKFLKS[Aib]KKFVK[Aib]FK-NH2 | – | – | – | – | – | – | – | – | – | Phe5-Leu6, 24 h; also recorded: Phe16-Lys17 |
| H-Gly-Ile-Api-Lys-Phe-Leu-Lys-Ser-Aib-Lys-Lys-Phe-Val-Lys-Aib-Phe-Lys-NH2 | – | – | – | – | – | – | – | – | – | Phe16-Lys17, 24 h |
| H-Gly-Ile-Lys-Api-Phe-Leu-Lys-Ser-Aib-Lys-Lys-Phe-Val-Lys-Aib-Phe-Lys-NH2 | – | – | – | – | – | – | – | – | – | Phe16-Lys17, 24 h |
| H-Gly-Ile-Lys-Lys-Phe-Leu-Api-Ser-Aib-Lys-Lys-Phe-Val-Lys-Aib-Phe-Lys-NH2 | – | – | – | – | – | – | – | – | – | Phe16-Lys17, 24 h |
